Columns and labels:
Type in all cases: in vivo
[1] = tested on: Alopecurus myosuroides (ALOMY); assay: Pre-emergence herbicidal activity, glasshouse pot test; conditions: rate 250 g/ha, evaluated after 13 days, 100=total damage to plant, 0=no damage to plant; for pest or weed control at 250 g/ha: Alopecurus myosuroides, 312 h
Experimental: (§1) Seeds of a variety of test species were sown in standard soil in pots. After cultivation for one day (pre-emergence) or after 8 days cultivation (post-emergence) under controlled conditions in a glasshouse (at 24/16° C., day/night; 14 hours light; 65% humidity), the plants were sprayed with an aqueous spray solution derived from the formulation of the technical active ingredient in acetone/water (50:50) solution containing 0.5% Tween 20 (polyoxyethelyene sorbitan monolaurate, CAS RN 9005-64-5). The test plants were then grown in a glasshouse under controlled conditions in a glasshouse (at 24/16° C., day/night; 14 hours light; 65% humidity) and watered twice daily. After 13 days for pre and post-emergence, the test was evaluated (100=total damage to plant; 0=no damage to plant). Test Plants: Lolium perenne (LOLPE), Alopecurus myosuroides (ALOMY), Echinochloa crus-galli (ECHCG), and Avena fatua (AVEFA). Pre-Emergence Activity

Avena fatua (AVEFA) [2] = assay: as above; conditions: rate 250 g/ha, evaluated after 13 days, 100=total damage to plant, 0=no damage to plant; for pest or weed control at 250 g/ha: Avena fatua, 312 h
Experimental: as §1

[3] = tested on: Echinochloa crus-galli (ECHCG); assay: as above; conditions: rate 250 g/ha, evaluated after 13 days, 100=total damage to plant, 0=no damage to plant; for pest or weed control at 250 g/ha: Echinochloa crus-galli, 312 h
Experimental: as §1

Lolium perenne (LOLPE) [4] = assay: as above; conditions: rate 250 g/ha, evaluated after 13 days, 100=total damage to plant, 0=no damage to plant; for pest or weed control at 250 g/ha: Lolium perenne, 312 h
Experimental: as §1

[5] = tested on: Alopecurus myosuroides (ALOMY); assay: Post-emergence herbicidal activity, glasshouse pot test; conditions: rate 250 g/ha, evaluated after 13 days, 100=total damage to plant, 0=no damage to plant; for pest or weed control at 250 g/ha: Alopecurus myosuroides, 312 h
Experimental: as §1, with “Post-Emergence” for “Pre-Emergence”

Avena fatua (AVEFA) [6] = assay: as above; conditions: rate 250 g/ha, evaluated after 13 days, 100=total damage to plant, 0=no damage to plant; for pest or weed control at 250 g/ha: Avena fatua, 312 h
Experimental: as §1, with “Post-Emergence” for “Pre-Emergence”

[7] = tested on: Echinochloa crus-galli (ECHCG); assay: as above; conditions: rate 250 g/ha, evaluated after 13 days, 100=total damage to plant, 0=no damage to plant; for pest or weed control at 250 g/ha: Echinochloa crus-galli, 312 h
Experimental: as §1, with “Post-Emergence” for “Pre-Emergence”

Lolium perenne (LOLPE) [8] = assay: as above; conditions: rate 250 g/ha, evaluated after 13 days, 100=total damage to plant, 0=no damage to plant; for pest or weed control at 250 g/ha: Lolium perenne, 312 h
Experimental: as §1, with “Post-Emergence” for “Pre-Emergence”

SMILES	pest or weed control at 250 g/ha [1] [%]	pest or weed control at 250 g/ha (Avena fatua (AVEFA) [2]) [%]	pest or weed control at 250 g/ha [3] [%]	pest or weed control at 250 g/ha (Lolium perenne (LOLPE) [4]) [%]	pest or weed control at 250 g/ha [5] [%]	pest or weed control at 250 g/ha (Avena fatua (AVEFA) [6]) [%]	pest or weed control at 250 g/ha [7] [%]	pest or weed control at 250 g/ha (Lolium perenne (LOLPE) [8]) [%]	damage to plant AVEFA (Avena fatua (AVEFA) [2])	damage to plant ALOMY [5]	damage to plant LOLPE (Lolium perenne (LOLPE) [8])	damage to plant ALOMY [1]	damage to plant ECHCG [3]	damage to plant LOLPE (Lolium perenne (LOLPE) [4])	damage to plant AVEFA (Avena fatua (AVEFA) [6])	damage to plant ECHCG [7]
Cc1cc(Oc2ccc(Cl)cc2)cc(C)c1C1=C(OC(=O)C(C)(C)C)[C@H]2[C@@H](C1=O)[C@@H]1CC[C@H]2O1 [Compound P-3]	100	90	100	90	90	100	100	100								
Cc1cc(Oc2cccc(F)c2F)cc(C)c1C1=C(O)[C@H]2[C@@H](C1=O)[C@@H]1CC[C@H]2O1 [Compound A-8]	40	0	40	30	80	40	90	80								
CCc1cc(Oc2ccc(Br)cc2F)ccc1C1=C(O)[C@H]2[C@@H](C1=O)[C@@H]1CC[C@H]2O1 [Compound A-1]	20	0	30	20	70	80	100	70								
Cc1cc(Oc2cnc3cc(Cl)ccc3n2)cc(C)c1C1=C(O)[C@H]2[C@@H](C1=O)[C@@H]1CC[C@H]2O1 [Compound A-22]	50		90	80		100	90		50	100	100					
CCc1cc(Oc2ccc(Cl)cc2)ccc1C1=C(O)CCC1=O [Compound A-32, 2-[4-(4-chlorophenoxy)-2-ethylphenyl]cyclopentane-1,3-dione]	0	0	50	10	0	0	0	0								
Cc1cc(Oc2ccc(Cl)cc2F)cc(C)c1C1=C(O)[C@H]2[C@@H](C1=O)[C@@H]1CC[C@H]2O1 [Compound A-7]	70	90	100	90	100	90	100	100								
Cc1cc(Oc2ccc(C(F)(F)F)cn2)cc(C)c1C1=C(O)[C@H]2[C@H]3CC[C@H](C3)[C@H]2C1=O [Compound A-17, meso-(3aS,4S,7R,7aR)-2-[2,6-dimethyl-4-(5-trifluoromethylpyridin-2-yloxy)phenyl]-hexahydro-4,7-methanoindene-1,3-dione]	0	0	30	0	10	10	40	10								
Cc1cc(Oc2cnc3cc(Cl)ccc3n2)cc(C)c1C1=C(O)[C@H]2[C@H]3CC[C@H](C3)[C@H]2C1=O [Compound A-16]	0	0	10	0	30	0	60	0								
Cc1cc(Oc2ccc(C(F)(F)F)cn2)cc(C)c1C1=C(O)C2C(C1=O)[C@H]1CC[C@@H]2CC1 (stereo partly drawn) [Compound A-19]	0	0	10	0	10	10	60	0								
CCc1cc(Oc2ccc3cc(Cl)ccc3n2)ccc1C1=C(O)[C@H]2[C@@H](C1=O)[C@@H]1CC[C@H]2O1 [Compound A-38]	80	0	100	70	90	80	100	80								
Cc1cc(Oc2ncc(Cl)cc2F)cc(C)c1C1=C(O)C2C(C1=O)[C@H]1CC[C@@H]2CC1 (stereo partly drawn) [Compound A-20, 2-[4-(5-chloro-3-fluoropyridin-2-yloxy)-2,6-dimethylphenyl]hexahydro-4,7-ethanoindene-1,3-dione]	40	0	60	20	50	20	70	30								
Cc1cc(Oc2ccc(F)cc2)cc(C)c1C1=C(OC(=O)C(C)(C)C)[C@H]2[C@@H](C1=O)[C@@H]1CC[C@H]2O1 [Compound P-4]	80	70	100	90	90	60	90	70								
Cc1cc(Oc2ncc(Cl)cc2F)cc(C)c1C1=C(O)[C@H]2[C@H]3CC[C@H](C3)[C@H]2C1=O [Compound A-18]	10	0	40	0	30	30	70	10								
Cc1cc(Oc2cnc3cc(Cl)ccc3n2)cc(C)c1C1=C(O)[C@H]2[C@@H](C1=O)[C@@H]1CC[C@H]2O1 [Compound A-23]									20	60	50	30	90	90	80	70
Cc1cc(Oc2ccc(Br)cc2Cl)cc(C)c1C1=C(O)[C@H]2[C@@H](C1=O)[C@@H]1CC[C@H]2O1 [Compound A-12]	40	10	60	70	80	70	100	70								
